Among the data in patent EP3351262A1, “CURAGLUTIDE FOR IN TREATMENT OF PREDIABETES, DIABETES, OBESITY AND METABOLIC DISEASES ASSOCIATED THERETO” (Istanbul Universitesi Rektorlugu, priority 2016, dated 2018) are ROS measurement percentages values, retold here.

The subject of the test is INS-1 beta cells. Briefly: ROS measurement with H2DCFDA. It counts as cell-based, rat. The conditions noted are these: INS-1 cells, 3rd hour, control 100%. The method, then: When this compound oxidizes by oxidants or free radicals, fluorescent dichlorofluorescein (DCF) will occur.
INS-beta cells were cultured into the plates covered with black with 96 wells in a way such that there would be 50 000 cells in 100 µl. After the growth of the cells, the experiment group (only palmitic acid given) and the groups wherein curaglutide as both protective and therapeutical against palmitic acid was given were removed at the end of the experiment, and each of the wells were washed with PBS. Then 100 µl PBS was added to every well. Then, start of experiment was accepted as 0th hour by adding 10 mM DCFA and the measurements were taken for 3 hours in every 30 minutes, including 0th hour. The absorbance values of each group and the absorbance values in 3rd hour was calculated by assuming the value of the control group as 100%.
ROS measurement was performed by applying H 2 DCFDA occurred as a result of chemical […] of fluorescein which is used as a marker for reactive oxygen derivatives (ROS) to INS-1 beta cells wherein palmitic acid was applied in different doses, and the results are shown in Figure 5.
ROS measurement was performed by applying 10 nM curaglutide as protector and therapeutical to INS-1 beta cells wherein palmitic acid was applied in different doses, and the results are shown in Figure 11.

`CCCCCCCCCCCCCCCC(=O)O` [palmitic acid]: the ROS measurement percentages runs as follows: (0.5 mM palmitic acid) 116±6.01%; (1 mM palmitic acid) 117±2.5%; (1.5 mM palmitic acid) 119.7±7.0%; (1.75 mM palmitic acid) 136.5±5.6%; (2 mM palmitic acid) 145.8±3.8%; (2.5 mM palmitic acid) 172.1±6.1%. Further, the ROS measurement percentages runs as follows: (3 mM palmitic acid) 174.8±9.9%; (3.5 mM palmitic acid) 241.6±5.5%; (4 mM palmitic acid) 262.2±9.9%.
